Here are results for 39 molecules from patent publication US9765018B2, “IDO inhibitors” (BRISTOL-MYERS SQUIBB COMPANY, priority 2013, dated 2017).

pIC50: −log10 of the molar value.

The test has as its target IDO (Homo sapiens (Human), UniProt P14902). Put plainly: LLE_IDO_ABS_DR (IDO assay, method not described).

Chain of IDO (P14902 whole entry): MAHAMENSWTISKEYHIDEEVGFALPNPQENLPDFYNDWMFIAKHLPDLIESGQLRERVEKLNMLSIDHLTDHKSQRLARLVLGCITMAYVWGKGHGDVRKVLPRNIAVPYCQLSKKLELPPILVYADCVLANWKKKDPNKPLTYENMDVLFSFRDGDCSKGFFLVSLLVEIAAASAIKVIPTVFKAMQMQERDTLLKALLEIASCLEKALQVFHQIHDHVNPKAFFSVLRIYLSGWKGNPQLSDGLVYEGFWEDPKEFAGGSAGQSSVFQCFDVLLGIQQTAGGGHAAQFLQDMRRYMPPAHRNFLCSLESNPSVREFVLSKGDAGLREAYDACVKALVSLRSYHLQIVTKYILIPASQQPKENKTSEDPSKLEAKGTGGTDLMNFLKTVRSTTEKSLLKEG

`Cc1ccc(NC(=O)Nc2cc(-c3ccc(F)cc3-c3nnn[nH]3)ccc2Oc2ccccc2C(C)(C)C)cc1` [Example 197, 1-(4-(2-tert-butylphenoxy)-4′-fluoro-2′-(1H-tetrazol-5-yl)biphenyl-3-yl)-3-p-tolylurea]: the pIC50 is 6.70.

In turn, `CC(C)(C)c1ccccc1Oc1ccc(-c2ccc(Cl)cc2-c2nnn[nH]2)cc1NC(=O)Nc1ccccc1Cl` [Example 198, 1-(4-(2-tert-butylphenoxy)-4′-chloro-2′-(1H-tetrazol-5-yl)biphenyl-3-yl)-3-(2-chlorophenyl)urea] showed a pIC50 of 5.83. This pIC50 is 0.87 log units lower than that of the molecule before.

Molecule `Cc1ccc(NC(=O)Nc2cc(-c3ccc(Cl)cc3-c3nnn[nH]3)ccc2Oc2ccccc2C(C)(C)C)cc1` [Example 199, 1-(4-(2-tert-butylphenoxy)-4′-chloro-2′-(1H-tetrazol-5-yl)biphenyl-3-yl)-3-p-tolylurea] had a pIC50 of 7.05. This pIC50 is 1.22 log units higher than that of the molecule before.

`CC(C)(C)c1ccccc1Oc1ccc(-c2cncc(C(=O)O)c2)cc1NC(=O)Nc1ccc(OC(F)(F)F)cc1` [Example 266, 5-(4-(2-tert-butylphenoxy)-3-(3-(4-(trifluoromethoxy)phenyl)ureido)phenyl)nicotinic acid] showed a negative logarithm of the IC50 (pIC50) of 5.67. This pIC50 lies 1.38 log units lower than the previous one.

With `Cc1ccc(NC(=O)Nc2cc(-c3cc(F)ccc3C(=O)O)ccc2OC(CCC(F)(F)F)c2ccccc2Cl)cc1` (stereo not drawn) [Example 267, 4′-(1-(2-Chlorophenyl)-4,4,4-trifluorobutoxy)-5-fluoro-3′-(3-(p-tolyl)ureido)-[1,1′-biphenyl]-2-carboxylic acid], the pIC50 was 6.41.

`CCC(Oc1ccc(-c2cc(F)ccc2C(=O)O)cc1NC(=O)Nc1ccc(C)cc1)c1ccccc1` (stereo not drawn) [Example 268] had a pIC50 of 6.16.

As to `CCCCC(Oc1ccc(-c2cc(F)ccc2C(=O)O)cc1NC(=O)Nc1ccc(C)cc1)C1CCCCC1` (stereo not drawn) [Example 269], the pIC50 was 5.96.

`CCC[C@@H](Oc1ccc(-c2cc(F)ccc2C(=O)O)cc1NC(=O)Nc1ccc(C)cc1)c1ccccc1` [Example 270] showed a pIC50 of 7.70. This pIC50 is 1.74 log units higher than that of the molecule before.

As to `CCC(Oc1ccc(-c2ccccc2-c2nnn[nH]2)cc1NC(=O)Nc1ccc(C)cc1)c1ccccc1` (stereo not drawn) [Example 271], the pIC50 was 7.52. This pIC50 and that of the molecule before are within 0.2 log units of each other.

`CCCCC(Oc1ccc(-c2ccccc2-c2nnn[nH]2)cc1NC(=O)Nc1ccc(C)cc1)C1CCCCC1` (stereo not drawn) [Example 272] gave a pIC50 of 7.00. Compared with the last molecule, the pIC50 is 0.52 log units lower.

Take `CCC[C@@H](Oc1ccc(-c2ccccc2-c2nnn[nH]2)cc1NC(=O)Nc1ccc(C)cc1)c1ccccc1` [Example 273]: the pIC50 was 7.40.

Molecule `CCC[C@H](Oc1ccc(-c2ccccc2-c2nnn[nH]2)cc1NC(=O)Nc1ccc(C)cc1)c1ccccc1` [Example 274] had a pIC50 of 5.45.

For the molecule `CCC[C@H](Oc1ccc(-c2cc(F)ccc2C(=O)O)cc1NC(=O)Nc1ccc(C)cc1)c1ccccc1` [Example 275], the pIC50 is 5.76. This pIC50 is 0.31 log units higher than that of the molecule before.

For the molecule `CCCOc1c(NC(=O)Nc2ccc(C3CC3)cc2)cc(-c2ccccc2-c2nnn[nH]2)cc1C1CC1` [Example 276, 1-(5-cyclopropyl-4-propoxy-2′-(1H-tetrazol-5-yl)-[1,1′-biphenyl]-3-yl)-3-(4-cyclopropylphenyl)urea], the pIC50 was 6.16.

As for `O=C(Nc1ccc(F)cc1F)Nc1cc(-c2ccccc2-c2nnn[nH]2)cc(CC2CC2)c1OCC1CC1` [Example 277], the pIC50 is 7.52.

Turning to `O=C(Nc1ccccc1F)Nc1cc(-c2cc(F)ccc2C(=O)O)cc(/C=C/C=C(F)F)c1OCCC(F)(F)F` [Example 281], the pIC50 was 6.09. This pIC50 is 1.43 log units lower than that of the molecule before.

In the case of `O=C(Nc1ccccc1F)Nc1cc(-c2cc(F)ccc2C(=O)O)cc(C/C=C/C(F)(F)F)c1OCCC(F)(F)F` [Example 282], the pIC50 is 5.86.

As for `CC/C=C/Cc1cc(-c2ccccc2-c2nnn[nH]2)cc(NC(=O)Nc2ccc(C)cc2)c1OCCC` [Example 285], the pIC50 is 6.85. Compared with the last molecule, the pIC50 is 0.99 log units higher.

On to `CCCC(CCC)Oc1c(Br)cc(-c2ccccc2-c2nnn[nH]2)cc1NC(=O)Nc1ccc(C)cc1` [Example 286], for which the pIC50 is 6.33.

For `C=CC(c1ccccc1)c1cc(-c2ccccc2-c2nnn[nH]2)cc(NC(=O)Nc2ccc(C)cc2)c1OCCC(F)(F)F` (stereo not drawn) [Example 290], the pIC50 is 5.83.

`C=CC(c1ccccc1)c1cc(-c2ccccc2C(=O)O)cc(NC(=O)Nc2ccc(C)cc2)c1OC1CCC(F)(F)CC1` (stereo not drawn) [Example 291] showed a pIC50 of 6.14. Compared with the last molecule, the pIC50 is 0.31 log units higher.

`C=CC(c1ccccc1)c1cc(-c2cc(F)ccc2C(=O)O)cc(NC(=O)Nc2ccc(C)cc2)c1OC1CCC(F)(F)CC1` (stereo not drawn) [Example 292]: the pIC50 is 5.47. This pIC50 lies 0.67 log units lower than the previous one.

In the case of `Cc1ccc(NC(=O)Nc2cc(-c3ccccc3C(=O)O)ccc2OCc2ccccc2)cc1` [Example 294], the pIC50 was 6.28.

In turn, `C=CC(c1ccccc1)c1cc(-c2ccccc2-c2nnn[nH]2)cc(NC(=O)Nc2ccc(C)cc2)c1OCC(C)C` (stereo not drawn) [Example 299] gave a pIC50 of 7.00.

Regarding `Cc1ccc(NC(=O)Nc2cc(-c3cc(F)ccc3C(=O)O)cc(C/C=C/C(F)(F)F)c2OCCC(F)(F)F)cc1` [Example 302], the pIC50 is 7.00.

With `Cc1ccc(NC(=O)Nc2cc(-c3ccccc3C(=O)O)cc(C/C=C/C(F)(F)F)c2OCCC(F)(F)F)cc1` [Example 303], the pIC50 is 6.80.

The molecule `O=C(Nc1ccccc1F)Nc1cc(-c2ccccc2C(=O)O)cc(/C=C/C=C(F)F)c1OCCC(F)(F)F` [Example 305] gave a pIC50 of 6.09.

`CCCC(Oc1ccc(-c2cc(F)ccc2C(=O)O)cc1NC(=O)Nc1ccc(C)cc1)c1ccccc1Cl` (stereo not drawn) [Example 306] gave a pIC50 of 5.26. Against the preceding molecule, the pIC50 is 0.83 log units lower.

For `Cc1ccc(NC(=O)Nc2cc(-c3cc(F)ccc3C(=O)O)ccc2OC(CCN2CCOCC2)c2ccccc2)cc1` (stereo not drawn) [Example 307], the pIC50 was 7.40.

The molecule `CCCC(Oc1ccc(-c2ccccc2-c2nnn[nH]2)cc1NC(=O)Nc1ccc(C)cc1)c1ccc(Cl)cc1` (stereo not drawn) [Example 308] had a pIC50 of 6.07.

In the case of `Cc1ccc(NC(=O)Nc2cc(-c3cc(F)ccc3C(=O)O)ccc2OC(CCC(F)(F)F)c2ccccc2)cc1` (stereo not drawn) [Example 309], the pIC50 was 7.05.

Consider `Cc1ccc(NC(=O)Nc2cc(-c3ccccc3-c3nnn[nH]3)ccc2OC(CCC(F)(F)F)c2ccccc2)cc1` (stereo not drawn) [Example 310], for which the pIC50 is 5.76.

`Cc1ccc(NC(=O)Nc2cc(-c3cc(F)ccc3C(=O)O)ccc2OC(CCC(F)(F)F)c2ccc(Cl)cc2)cc1` (stereo not drawn) [Example 311] gave a pIC50 of 6.70.

`Cc1ccc(NC(=O)Nc2cc(-c3ccccc3-c3nnn[nH]3)ccc2OC(CCC(F)(F)F)c2ccc(Cl)cc2)cc1` (stereo not drawn) [Example 312] had a pIC50 of 7.10. Against the preceding molecule, the pIC50 is 0.40 log units higher.

`O=C(Nc1ccc(Cl)cc1)Nc1cc(-c2ccccc2-c2nnn[nH]2)cc(CC2CC2)c1OCCC(F)(F)F` [Example 314, 1-(4-chlorophenyl)-3-(5-(cyclopropylmethyl)-2′-(1H-tetrazol-5-yl)-4-(3,3,3-trifluoropropoxy)-[1,1′-biphenyl]-3-yl)urea] had a pIC50 of 5.63.

In the case of `Cc1cccc(NC(=O)Nc2cc(-c3ccccc3-c3nnn[nH]3)cc(CC3CC3)c2OCCC(F)(F)F)c1` [Example 315], the pIC50 was 7.10. This pIC50 is 1.47 log units higher than that of the molecule before.

`Cc1ccc(NC(=O)Nc2cc(-c3ccccc3-c3nnn[nH]3)cc(CC3CC3)c2OCCC(F)(F)F)cc1` [Example 317] showed a pIC50 of 6.48. This pIC50 is 0.62 log units lower than that of the molecule before.

For the molecule `O=C(Nc1ccc(F)cc1F)Nc1cc(-c2ccccc2-c2nnn[nH]2)cc(CC2CC2)c1OCCC(F)(F)F` [Example 318], the pIC50 was 6.49. This pIC50 and that of the molecule before are within 0.2 log units of each other.

In turn, `O=C(Nc1ccc(OC(F)(F)F)cc1)Nc1cc(-c2ccccc2-c2nnn[nH]2)cc(CC2CC2)c1Oc1ccccc1` [Example 320] gave a negative logarithm of the IC50 (pIC50) of 6.66.

Usually pIC50 stands for −log10 of the IC50, conventionally taken in molar units.
